Measured values as given in patent US11414437B2, “Borate compound, and synthesis method therefor and uses thereof” (CHENGDU ORIGIN BIOTECHNOLOGY LIMITED COMPANY, priority 2017, dated 2022).
Like-named read-outs stand apart in the source and are kept apart here. Blank lines part the entries; values can stand above or below the compound they belong to.

Tests used:
hERG potassium channel = hERG potassium channel (Homo sapiens, UniProt Q12809); test: Inhibition test of hERG potassium channel of heart (patch clamp); type: cell-based; details: for hERG current inhibition ratio % / IC50: n 3; for inhibitory effect on the hERG potassium channel (judged by general standard): judged by the standard of b169; for IC50: patch clamp
Sequence of hERG potassium channel (Q12809 whole entry): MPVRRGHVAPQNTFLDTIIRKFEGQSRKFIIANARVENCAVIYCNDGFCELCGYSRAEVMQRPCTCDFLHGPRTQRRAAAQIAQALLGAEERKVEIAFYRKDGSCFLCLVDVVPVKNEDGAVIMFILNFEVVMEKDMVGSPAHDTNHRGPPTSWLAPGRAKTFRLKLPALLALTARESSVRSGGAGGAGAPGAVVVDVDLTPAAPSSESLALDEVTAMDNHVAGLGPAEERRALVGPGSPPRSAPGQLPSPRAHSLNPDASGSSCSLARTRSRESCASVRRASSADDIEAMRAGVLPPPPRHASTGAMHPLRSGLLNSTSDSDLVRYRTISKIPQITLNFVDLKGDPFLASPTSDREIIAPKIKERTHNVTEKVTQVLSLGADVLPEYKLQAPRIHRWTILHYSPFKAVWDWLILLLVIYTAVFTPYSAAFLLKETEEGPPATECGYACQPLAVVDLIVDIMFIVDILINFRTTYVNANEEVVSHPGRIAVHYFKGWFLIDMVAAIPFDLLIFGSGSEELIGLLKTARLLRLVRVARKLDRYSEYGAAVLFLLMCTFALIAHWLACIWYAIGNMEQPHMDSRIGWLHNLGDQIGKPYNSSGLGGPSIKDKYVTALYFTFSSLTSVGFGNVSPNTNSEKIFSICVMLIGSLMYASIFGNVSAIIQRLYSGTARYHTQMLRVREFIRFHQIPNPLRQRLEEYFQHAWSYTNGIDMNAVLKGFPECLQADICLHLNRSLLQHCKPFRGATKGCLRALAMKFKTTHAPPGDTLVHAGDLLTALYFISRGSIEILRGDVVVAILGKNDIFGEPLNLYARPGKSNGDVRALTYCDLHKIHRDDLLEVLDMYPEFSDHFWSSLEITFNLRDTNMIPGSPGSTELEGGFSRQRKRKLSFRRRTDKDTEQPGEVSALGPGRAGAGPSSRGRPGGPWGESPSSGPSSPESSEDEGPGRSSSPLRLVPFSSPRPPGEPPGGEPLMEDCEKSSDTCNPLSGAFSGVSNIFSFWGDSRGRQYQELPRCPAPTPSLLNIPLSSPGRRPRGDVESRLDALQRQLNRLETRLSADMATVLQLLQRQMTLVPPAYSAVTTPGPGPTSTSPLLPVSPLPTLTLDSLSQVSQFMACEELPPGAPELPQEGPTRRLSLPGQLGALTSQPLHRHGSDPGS
Description: An inhibitory effect of the tested compound on hERG was judged by a general standard (Roche O. et al. ChemBioChem. 2002, 3:455-459.):
When a hERG semi-inhibitory concentration of a medicine exceeded about 30 times of a peak concentration thereof in blood, the concentration was in a relatively safe range (Redfernelt al, Cardiovascular Research, 58, 32-45 (2003)).

[1] = High-temperature and high-humidity accelerated stability test; type: physicochemical; details: compared with compounds 8l, MLN9708, MLN2238 of the prior art
Description: In addition, the compound of the present invention has better stability.

[2] = system: MM.1S human multiple myeloma SCID mouse transplanted tumor; test: Pharmacodynamic test, SCID mouse transplanted tumor model; type: in vivo; details: 0.0166 mmol/kg intragastric
Experimental: In the experiment, a SCID mouse transplanted tumor model of a human multiple myeloma cell line MM.1S was used. Specific modeling steps were as follows: frozen MM.1S cells were resuscitated and cultured in vitro according to a routine, and the cells were collected in a logarithmic growth phase, and diluted with PBS to form a tumor cell suspension with a concentration of 5×10^7/ml. […] About 1 week to 2 weeks after injection, the mass was palpable in axillary, and in vivo passage was performed when a tumor volume was larger than 500 mm^3. After the mouse was killed by a neck pulling method, a body surface was disinfected, skin was cut open, aseptic operation was performed, a tumor tissue was peeled off from an axillary subcutaneous tissue, a fibrous capsule was removed, and the tumor was taken out. The tumor was washed clean in normal saline, and then cut, and after removing the central necrotic part, the tumor tissue with good growth, reddish color and fish flesh shape was selected, then was cut into 1 mm×1 mm×1 mm small pieces, and placed in normal saline for later use. The cut tumor was placed in a mouth of a No. 18 trocar, iodized cotton was used to disinfect the side of the armpit close to the back of the mouse, and local inoculation was performed. The transplanted tumor used in the test was the 4th generation of in vivo passage. When the tumor volume of most SCID mice of in vivo passage was larger than 100 mm^3, the tumor volume was measured and calculated, and the mice were randomly grouped according to the tumor volume.
The administration mode was intragastric administration through mouth, with an administration volume of 10 ml/kg. The model control group was given the same volume of solvent intragastrically. The mice were all intragastrically administrated through mouth twice a week for a total of 5 times, i.e., the mice were administrated at the 1st, 5th, 8th, 12th and 15th days of the experiment, with a duration of 18 days.
Doses of different tested samples were equimolar, with a specific dose of 0.0166 mmol/kg; and the model control group was only given normal saline. The medicines were 8b and 8l, as well as Ixazomib Citrate (MLN9708) and Ixazomib (MLN2238).
On the 5th, 8th, 12th, 15th and 18th days after administration, a short diameter (a) and a long diameter (b) of the tumor of each mouse were measured with a vernier caliper, and the tumor volume was calculated according to a formula (a^2×b)/2. A relative tumor volume (RTV) was calculated based on the tumor volume measured and calculated, RTV=Vt/V0. V0 was the tumor volume at random grouping (i.e., d0) and Vt was the tumor volume at each measurement (i.e., dn). A relative tumor proliferation rate of an anti-tumor activity evaluation index was calculated according to the following formula: relative tumor proliferation rate T/C (%): […]
(Note: TRTV was a RTV of the treatment group; and CRTV was a RTV of the model control group. An evaluation standard of a curative effect was T/C %≤40%, and the medicine was effective when P<0.05 after statistical treatment).
After weighing and measuring the tumor on the 18th day, all animals were sacrificed, and the tumor was taken and weighed.

SD rats = system: SD rats
Description: The test was a single-dose toxicity test of SD rats by intragastric administration through mouth.

[3] = dose 2, 0.001662 mmol/kg single intragastric dose, 6 female rats, 14 days observation
[4] = dose 2, 0.001662 mmol/kg single intragastric dose, 6 male rats, 14 days observation
[5] = dose 4, 0.00277 mmol/kg single intragastric dose, 6 female rats, 14 days observation
[6] = dose 4, 0.00277 mmol/kg single intragastric dose, 6 male rats, 14 days observation

- stability under high-temperature and high-humidity accelerated test condition [1]: better stabilities
Structure (SMILES): CC(C)C[C@H](NC(=O)CNC(=O)c1cc(Br)ccc1Cl)B1OC(=O)c2ccccc2O1 [compound 8a]
- hERG current inhibition ratio % (hERG potassium channel; 0.3 μM): 1.47% ±
- hERG current inhibition ratio % (hERG potassium channel; 1 μM): 5.53% ±
- hERG current inhibition ratio % (hERG potassium channel; 3 μM): 4.36% ±
- hERG current inhibition ratio % (hERG potassium channel; 10 μM): 11.24% ±
- hERG current inhibition ratio % (hERG potassium channel; 30 μM): 7.86% ±
- inhibitory effect on the hERG potassium channel (judged by general standard) (hERG potassium channel): no inhibitory effect
- IC50 (hERG potassium channel): > 30 µM

Structure (SMILES): CC(C)C[C@H](NC(=O)CNC(=O)c1cc(Br)ccc1Cl)B1OC(=O)[C@@H](c2ccccc2)O1 [compound 8b, 2-chloro-5-bromo-N-[2-({(1R)-3-methyl-1-[(5R)-4-oxo-5-phenyl-1,3,2-dioxaborolan-2-yl]butyl}amino)-2-oxoethyl]benzamide]
- inhibition of tumor growth (in words) ([2]; stronger than 8l, MLN9708, MLN2238 (p<0.01)): significantly inhibited tumor growth
- Tumor weight ([2]; after the 18th day, X ± SD): 0.028 ± 0.025 g
- Female Suvival (SD rats; dose 1, 0.001108 mmol/kg single intragastric dose, 6 female rats, 14 days observation): 6
- Male Suvival (SD rats; dose 1, 0.001108 mmol/kg single intragastric dose, 6 male rats, 14 days observation): 6
- Female Death (SD rats; [3]): 0
- Female Suvival (SD rats; [3]): 6
- Male Death (SD rats; [4]): 0
- Male Suvival (SD rats; [4]): 6
- Female Suvival (SD rats; dose 3, 0.002216 mmol/kg single intragastric dose, 6 female rats, 14 days observation): 6
- Male Suvival (SD rats; dose 3, 0.002216 mmol/kg single intragastric dose, 6 male rats, 14 days observation): 6
- Female Death (SD rats; [5]): 2
- Female Suvival (SD rats; [5]): 4
- Male Death (SD rats; [6]): 0
- Male Suvival (SD rats; [6]): 6
- maximum tolerance dose (SD rats; female rats, single intragastric dose): 0.002216 mmol/kg
- Female Death (SD rats; female, rat, in vivo, 0.001108 mmol/kg, 14 days): 0
- Female Death (SD rats; female, rat, in vivo, 0.002216 mmol/kg, 14 days): 0
- Male Death (SD rats; male, rat, in vivo, 0.001108 mmol/kg, 14 days): 0
- Male Death (SD rats; male, rat, in vivo, 0.002216 mmol/kg, 14 days): 0
- inhibitory effect on the hERG potassium channel (judged by general standard) (hERG potassium channel): no inhibitory effect
- IC50 (hERG potassium channel): > 30 µM
- stability under high-temperature and high-humidity accelerated test condition [1]: better stabilities
